As usually defined, the GI50 is the concentration giving 50% growth inhibition.

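Growth conditions: 96-well plates. Treatment: test compound, 48 hours, 5 concentrations. Analysis: linear interpolation between bracketing concentrations; unreached endpoints set to highest concentration. GI50: concentration for 50% inhibition of growth.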 Active and inactive are the calls of the source. Cut-off read from the data, not from the text of the source: active = GI50 up to about 1.1 µM and inactive = higher.

These results are taken from ChEMBL document CHEMBL1201862, “PubChem BioAssay data set” (2004).

Among the test systems are 786-0; CAKI-1; CCRF-CEM; HCC 2998; HOP-62; HT-29; KM-20L2; KM12; NCI-H226; NCI-H23; OVCAR-3; RXF 393; SF-268; SK-OV-3; BT-549; DU-145; MDA-MB-231; NCI/ADR-RES; SR; T47D.
Assay in all cases: DTP human tumour cell line panel, 48 h

As to `O=C(NCCO)c1ccc([N+](=O)[O-])cc1`, the GI50 in the assay on 786-0, in the assay with CAKI-1, with CCRF-CEM, in the assay with HCC 2998, in the assay on HOP-62 and in the assay with HT-29 was > 100 µM (inactive) each time. The GI50 in the assay on KM-20L2, with KM12, with NCI-H226, with NCI-H23, in the assay on OVCAR-3 and in the assay with RXF 393 was > 100 µM (inactive) in each case. For the same compound, the GI50 with SF-268 and in the assay on SK-OV-3 was > 100 µM (inactive) throughout.

For the compound `Brc1cccc(/C=N/C23CC4CC(CC(C4)C2)C3)c1`, the GI50 with 786-0, in the assay on CAKI-1, with CCRF-CEM, with HCC 2998, in the assay on HOP-62 and in the assay on HT-29 was > 100 µM (inactive) throughout. Moreover, the GI50 in the assay on KM-20L2, with KM12, in the assay on NCI-H226, with NCI-H23, with OVCAR-3 and in the assay with RXF 393 was > 100 µM (inactive) throughout. Further, the GI50 in the assay on SF-268 and in the assay on SK-OV-3 was > 100 µM (inactive) throughout.

Regarding `CCOC(=O)C(C(=O)OCC)=C1C=C(c2ccccc2)c2ccccc21`, the GI50 was 28.5 µM (inactive) in the assay on 786-0; 27.5 µM (inactive) in the assay with CCRF-CEM; 7.29 µM (inactive) in the assay on HCC 2998; 13.3 µM (inactive) with HOP-62; 42.8 µM (inactive) with HT-29; 31.6 µM (inactive) in the assay on KM-20L2. Also, the GI50 was 37.4 µM (inactive) in the assay on KM12; 78.9 µM (inactive) with NCI-H226; 54.5 µM (inactive) in the assay on NCI-H23; > 100 µM (inactive) in the assay with OVCAR-3; 40.2 µM (inactive) with RXF 393; > 100 µM (inactive) in the assay on SF-268. Also, the GI50 with SK-OV-3 is > 100 µM (inactive).

In the case of `C/C(CC(=O)Nc1ccc([N+](=O)[O-])cc1)=N\Nc1ccc([N+](=O)[O-])cc1[N+](=O)[O-]`, the GI50 was > 100 µM (inactive) in the assay on 786-0; 45 µM (inactive) in the assay on CCRF-CEM; 13.9 µM (inactive) with HCC 2998; 50.1 µM (inactive) in the assay on HOP-62; > 100 µM (inactive) in the assay on HT-29; 32.8 µM (inactive) in the assay with KM-20L2. The GI50 in the assay with KM12 is 29.3 µM (inactive); in the assay with NCI-H226, 52.7 µM (inactive); in the assay with NCI-H23 it was > 100 µM (inactive); in the assay on OVCAR-3, 98.2 µM (inactive); in the assay on RXF 393, > 100 µM (inactive); in the assay on SF-268, 62.1 µM (inactive). The GI50 with SK-OV-3 is > 100 µM (inactive).

As for `c1ccc2c(c1)CCCc1cc3ccccc3nc1-2`, the GI50 was > 100 µM (inactive) with 786-0; > 100 µM (inactive) in the assay on CAKI-1; 94.6 µM (inactive) in the assay on CCRF-CEM; > 100 µM (inactive) in the assay with HCC 2998; > 100 µM (inactive) with HOP-62; 46.3 µM (inactive) in the assay on HT-29. Further, the GI50 in the assay on KM-20L2 was > 100 µM (inactive); in the assay on KM12 it was > 100 µM (inactive); in the assay with NCI-H23 it was > 100 µM (inactive); in the assay with OVCAR-3, > 100 µM (inactive); with SF-268, 92.5 µM (inactive); in the assay on SK-OV-3 it was 38.7 µM (inactive).

As for `CC(=O)SC(SC(C)=O)SC(C)=O`, the GI50 was > 100 µM (inactive) in the assay with 786-0; 22.5 µM (inactive) with CCRF-CEM; > 100 µM (inactive) with HCC 2998; > 100 µM (inactive) with HOP-62; 24.7 µM (inactive) in the assay with HT-29; > 100 µM (inactive) in the assay on KM-20L2. For the same compound, the GI50 with KM12 is > 100 µM (inactive); in the assay on NCI-H226 it was > 100 µM (inactive); in the assay with NCI-H23, > 100 µM (inactive); in the assay with OVCAR-3, 91 µM (inactive); in the assay with RXF 393, > 100 µM (inactive); in the assay on SF-268, > 100 µM (inactive). Further, the GI50 with SK-OV-3 was > 100 µM (inactive).

In the case of `Cc1ccc(-c2cc(=O)c3cc(C)c(C)c(C(=O)O)c3o2)cc1N`, the GI50 in the assay with 786-0, in the assay with CAKI-1, in the assay with CCRF-CEM, in the assay on HT-29, in the assay with KM-20L2 and in the assay on KM12 was > 100 µM (inactive) in each case. Further, the GI50 with NCI-H226, in the assay on NCI-H23, with OVCAR-3, in the assay on RXF 393, in the assay with SF-268 and with SK-OV-3 was > 100 µM (inactive) in each case.

As to `COc1ccc(O)cc1C(O)c1ccccc1` (configuration not stated), the GI50 in the assay with 786-0, in the assay with CAKI-1, with CCRF-CEM, in the assay with HCC 2998, in the assay with HOP-62 and in the assay on HT-29 was > 100 µM (inactive) each time. For the same compound, the GI50 in the assay with KM-20L2, with KM12, in the assay with NCI-H226, in the assay on NCI-H23, with OVCAR-3 and with RXF 393 was > 100 µM (inactive) throughout. Further, the GI50 with SF-268 and with SK-OV-3 was > 100 µM (inactive) each time.

Take `c1c2c(cc3c1OCO3)-c1cc3ccc4c(c3c[n+]1CC2)OCO4` [COPTISINE CHLORIDE]: the GI50 in the assay with 786-0 was 4.2 µM (inactive); in the assay on BT-549, > 5.85 µM (inactive); in the assay on CAKI-1 it was > 12.5 µM (inactive); in the assay on CCRF-CEM it was 0.764 µM (active); with DU-145, 1.3 µM (inactive); with HCC 2998, 3.85 µM (inactive). Further, the GI50 in the assay on HOP-62 is 1.4 µM (inactive); with HT-29, 5.65 µM (inactive); in the assay with KM12 it was 0.925 µM (active); in the assay on MDA-MB-231, 1.13 µM (inactive); in the assay on NCI-H226, 1.92 µM (inactive); with NCI-H23, 0.815 µM (active). Also, the GI50 is 0.348 µM (active) in the assay on NCI/ADR-RES; 0.798 µM (active) in the assay on OVCAR-3; 1.99 µM (inactive) with RXF 393; 2.36 µM (inactive) in the assay on SF-268; 3.3 µM (inactive) in the assay with SK-OV-3; 0.486 µM (active) in the assay with SR. The GI50 in the assay with T47D is 3.13 µM (inactive).

In the case of `COc1cc(C2c3[nH]c4ccc(F)cc4c3C[C@H]3COC(=O)N23)cc(OC)c1O` (some centres not stated), the GI50 in the assay on 786-0 was 11.6 µM (inactive); in the assay on BT-549, 43.2 µM (inactive); with CAKI-1, 11 µM (inactive); in the assay on CCRF-CEM it was 6.89 µM (inactive); in the assay with DU-145 it was 15.9 µM (inactive); in the assay on HCC 2998 it was 14.1 µM (inactive). Moreover, the GI50 in the assay on HOP-62 was 5.71 µM (inactive); in the assay on HT-29, 7.55 µM (inactive); in the assay with KM12, 12.3 µM (inactive); in the assay with MDA-MB-231, 22.1 µM (inactive); in the assay on NCI-H226, 10.4 µM (inactive); with NCI-H23, 4.11 µM (inactive). For the same compound, the GI50 in the assay with NCI/ADR-RES was 4.93 µM (inactive); in the assay with OVCAR-3 it was 13.4 µM (inactive); in the assay with RXF 393, 3.29 µM (inactive); in the assay with SF-268 it was 11.5 µM (inactive); with SK-OV-3 it was 15.5 µM (inactive); in the assay with SR it was 0.47 µM (active). In addition, in the assay with T47D, the GI50 is 32.5 µM (inactive).

For the compound `C[Si](C)(c1ccccc1)[C@H]1CCCC=C1CCNC1c2ccccc2CCc2ccccc21`, the GI50 is > 100 µM (inactive) in the assay on 786-0; > 100 µM (inactive) with BT-549; 73.5 µM (inactive) with CAKI-1; 1.07 µM (active) with CCRF-CEM; > 100 µM (inactive) with DU-145; > 100 µM (inactive) in the assay on HCC 2998. Besides, the GI50 was > 100 µM (inactive) in the assay on HOP-62; 28.7 µM (inactive) with HT-29; 77.3 µM (inactive) in the assay with KM12; 89.7 µM (inactive) in the assay with MDA-MB-231; > 100 µM (inactive) in the assay with NCI-H226; 61.5 µM (inactive) in the assay on NCI-H23. In addition, the GI50 is 76.2 µM (inactive) in the assay on NCI/ADR-RES; > 100 µM (inactive) in the assay on OVCAR-3; 80 µM (inactive) in the assay with RXF 393; > 100 µM (inactive) in the assay on SF-268; > 100 µM (inactive) with SK-OV-3; 36.6 µM (inactive) in the assay on SR. Also, the GI50 in the assay with T47D was 35.9 µM (inactive).

Turning to `C[C@]12CCC(=O)C(O)=C1CC[C@@H]1C2CC[C@]2(C)Nc3c(cnn3-c3ccccc3)CC12` (some centres not stated), the GI50 was > 100 µM (inactive) with 786-0; 56.9 µM (inactive) in the assay on CAKI-1; 37.2 µM (inactive) in the assay on CCRF-CEM; > 100 µM (inactive) in the assay on HCC 2998; > 100 µM (inactive) in the assay with HOP-62; 39.4 µM (inactive) in the assay on HT-29. The GI50 was 56.5 µM (inactive) in the assay with KM-20L2; 31.7 µM (inactive) in the assay with KM12; 64.3 µM (inactive) with NCI-H226; 54.5 µM (inactive) in the assay on NCI-H23; 54.8 µM (inactive) in the assay with OVCAR-3; 55.1 µM (inactive) in the assay with RXF 393. The GI50 in the assay on SK-OV-3 is > 100 µM (inactive).

As for `C=CCNC(=S)N/C=C1\C(=O)Oc2ccccc2C1=O`, the GI50 is 55 µM (inactive) in the assay with 786-0; 22.2 µM (inactive) in the assay with CAKI-1; > 100 µM (inactive) in the assay with CCRF-CEM; 68.4 µM (inactive) with HCC 2998; > 100 µM (inactive) with HT-29; > 100 µM (inactive) in the assay with KM-20L2. Also, the GI50 in the assay with KM12 is 87.5 µM (inactive); with NCI-H226, 28.9 µM (inactive); in the assay with NCI-H23, > 100 µM (inactive); with OVCAR-3 it was 82 µM (inactive); with RXF 393, 19.3 µM (inactive); with SF-268 it was 36 µM (inactive). In addition, the GI50 with SK-OV-3 is 44.4 µM (inactive).

Turning to `COc1cc2c(cc1OC)CC(=O)Nc1cc(OC)c(OC)cc1CC2`, the GI50 with 786-0 is 49.2 µM (inactive); in the assay with CAKI-1, 68.2 µM (inactive); in the assay with CCRF-CEM, 51.2 µM (inactive); in the assay with HCC 2998, 97.1 µM (inactive); in the assay on HOP-62, 55.2 µM (inactive); with HT-29, 37 µM (inactive). In addition, the GI50 is 48.4 µM (inactive) in the assay on KM-20L2; 43.6 µM (inactive) with KM12; 79.1 µM (inactive) in the assay on NCI-H226; > 82.6 µM (inactive) with NCI-H23; 43.9 µM (inactive) in the assay on OVCAR-3; 80.9 µM (inactive) with SF-268. For the same compound, the figures for the GI50 with SK-OV-3 and in the assay with SR were 38.6 µM (inactive) and 5.74 µM (inactive), respectively.
